Experimental data taken from publication PMC6327987, “Synthesis and biological evaluation of novel N^9-heterobivalent β-carbolines as angiogenesis inhibitors” (Journal of Enzyme Inhibition and Medicinal Chemistry, 2019).
Several values for one entry are separate records, joined by “and”; a condition that tells them apart may be missing. Equal values may be shown once. Entries after “also recorded” stand apart in the source; their conditions may differ. Read-outs that look alike come from different tables or passages of the source.

Columns and labels:
BGC-823 = test: MTT cytotoxicity, gastric carcinoma cells; type: cell-based; details: Homo sapiens; MTT assay, gastric carcinoma BGC-823, mean ± SD of at least three determinations
Experimental: (§1) Target compounds were assayed by the MTT method for cytotoxic activity, as described previously. The panel of cell lines included gastric carcinoma (BGC-823), liver carcinoma (HepG2), breast carcinoma (MCF-7), colon carcinoma (HT-29), esophageal carcinoma (Eca-109), and Lewis lung carcinoma (LLC). Growth inhibition rates were calculated with the following equitation: Inhibition ratio (%)= ODcompd−ODblank/ODDMSO−ODblank×100% . Half maximal inhibitory concentration (IC50) of each compound was calculated using software Graph-Pad Prism (version 6.0).
(§2) All the 24 novel synthesized N^9-heterobivalent β-carbolines (5a-x) were screened for their in vitro cytotoxic activities against six different cancer cell lines, namely BGC-823 (gastric carcinoma), HepG2 (liver carcinoma), MCF-7 (breast carcinoma), HT-29 (colon carcinoma), Eca-109 (esophageal carcinoma) and LLC (Lewis lung carcinoma). The IC50 values were the average of at least three independent experiments.

MCF-7 = test: MTT cytotoxicity, breast carcinoma cells; type: cell-based; details: Homo sapiens, MCF7; MTT assay, breast carcinoma MCF-7, mean ± SD of at least three determinations
Experimental: as §1, §2

LLC = test: MTT cytotoxicity, Lewis lung carcinoma cells; type: cell-based; details: Lewis lung carcinoma, MTT assay, mean ± SD of at least three determinations
Experimental: as §1, §2

HepG2 = test: MTT cytotoxicity, liver carcinoma cells; type: cell-based; details: Homo sapiens; MTT assay, liver carcinoma HepG2, mean ± SD of at least three determinations
Experimental: as §1, §2

Eca-109 = test: MTT cytotoxicity, esophageal carcinoma cells; type: cell-based; details: Homo sapiens, ECa-109, MTT assay, esophageal carcinoma Eca-109, mean ± SD of at least three determinations
Experimental: as §1, §2

HT-29 = test: MTT cytotoxicity, colon carcinoma cells; type: cell-based; details: Homo sapiens; MTT assay, colon carcinoma HT-29, mean ± SD of at least three determinations
Experimental: as §1, §2

Sarcoma 180 [1] = test: In vivo antitumor activity, Sarcoma 180-bearing mice; details: i.p. once a day for seven days at the dosage of Table 2 (about one-fifth of LD50; CTX 30 mg kg^−1), tumour weight day 21, mean ± SD
Experimental: (§3) Sarcoma180 and Lewis lung cancer cell lines were provided by Shanghai Institute of Pharmaceutical Industry. Mice were inoculated with Sarcoma180 and Lewis lung cancer tumour cells. After 7 days, the tumours were removed and the cells were harvested. Mice received subcutaneous injections of viable tumour cells (2 × 10^6 cells/mouse) in the armpit. […] CTX at 30 mg kg^−1 was used as the positive control and the vehicle as the negative control. The weight of the animals was recorded every three days. All of the animals were killed on the 21st day after tumour inoculation, and the tumours were excised and weighed. The inhibition rate was calculated as follows: (C−T)/C×100 where T is the average tumor weight of the treated group and C is the average tumor weight of the negative control group.

KM mice [2] = test: Acute toxicity in mice (i.p.); type: in vivo; details: for Acute toxicity Neurotoxic effect: KM mice, intraperitoneal; for Acute toxicity LD50: both, KM, mouse, in vivo, ip, 14 days
Experimental: Specific pathogen-free KM mice (6–8 weeks old) weighing 19–22 g were housed in a mouse room at 24 ± 2 °C and 60–70% humidity with 12 h light/dark cycles. The mice were provided rodent laboratory chow pellets and tap water for a week to adapt to the environment of the mouse room. The experimental protocol was approved by the Institutional Animal Ethical Committee, and all of the animals were provided by Laboratory Animal Center of Xinjiang Uygur Autonomous Region. Prior to each experiment, mice were fastened overnight and allowed free access to water. Various doses of the asymmetric dimeric β-carboline derivatives, ranging from 5.0 to 500 mg kg^−1 dissolved in 0.5% carboxymethyl cellulose sodium (CMC-Na) salt solution, were given intraperitoneally to different groups of healthy KM mice, and each group contained 10 mice (5 males and 5 females). After the administration of the compounds, the mice were observed continuously for the first 2 h for any gross behavioral changes and deaths, then intermittently for the next 24 h, and occasionally thereafter for 14 days, and for the onset of any delayed effects. All of the animals were killed on the 14th day after drug administration, and they were checked macroscopically for possible damage to the heart, liver, and kidneys. Mice that experienced immediate death following drug administration were also examined for any possible organ damage. LD50 values were calculated graphically as described.
The LD50 values of the selected N^9-heterobivalent β-carbolines in mice after intraperitoneal (i.p.) administration are shown in Table 2. […] Death occurred mostly in the high dosage group within 4–8 h after injection. All of the surviving animals returned to normal within the next day.

Lewis lung cancer [3] = tested on: Lewis lung cancer; design: method as in PMID 12620075; details: mice, dosage 40 mg kg^−1; cited from earlier work
KM mice [4] = details: mouse, in vivo; cited from earlier work
Sarcoma 180 [5] = tested on: Sarcoma 180; design: method as in PMID 12620075; details: mice, dosage 40 mg kg^−1; cited from earlier work
[6] = tested on: six tumor cell lines (BGC-823, HepG2, MCF-7, HT-29, Eca-109, LLC); test: MTT cytotoxicity, panel of six tumour cell lines (summary statements); type: cell-based; details: MTT assay, statement over all cell lines tested; read-out: IC50 against the tested six tumor cell lines
Experimental: as §1, §2

angiogenesis of CAM = test: Chicken chorioallantoic membrane (CAM) angiogenesis assay; type: in vivo; details: gelatin sponge discs 0.5, 5.0 and 50 µM/disc, 48 h, blood vessels counted
Experimental: Anti-angiogenic activity of the selected compounds 5b and 5w were investigated in vivo using a CAM assay. Five-day-old fertilized eggs were obtained from a local hatchery. We injected 5 ml of albumin, and the eggs were incubated horizontally to allow the CAM to detach from the shell to produce a sham chamber. Compounds 5b and 5w were prepared in gelatin sponge discs (5 × 5 × 5 mm^3) at the concentration of 0.5, 5.0, and 50 µM/disc, respectively. CA4P was used as the positive control drug. Discs containing the vehicle only (DMSO) were used as the negative control. A small window opening was made in the shell, and the discs were directly applied onto the CAM. The square opening was covered with sterilized surgical tape and the embryos were incubated for 48 h at 38.5 °C. The CAMs were photographed under a dissecting microscope and blood vessels in each CAM were counted. The results are presented as a mean percentage of inhibition to the control ± SD, (n = 3).
The anti-angiogenetic activity of compounds 5b and 5w were semi-quantitatively analyzed using Graph Pad Prism 5.0 (shown in Figure 2(B)).

Lewis lung cancer [7] = test: In vivo antitumor activity, Lewis lung cancer-bearing mice; details: i.p. once a day for seven days at the dosage of Table 2 (about one-fifth of LD50; CTX 30 mg kg^−1), tumour weight day 21, mean ± SD
Experimental: as §3

| melting point [°C] | Structure (SMILES) | IC50 (BGC-823) [µM] | IC50 (MCF-7) [µM] | IC50 (LLC) [µM] | IC50 (HepG2) [µM] | IC50 (Eca-109) [µM] | IC50 (HT-29) [µM] | Tumor inhibition rate (%) Sarcoma 180 (Sarcoma 180 [1]) | Acute toxicity Neurotoxic effect (KM mice [2]) | Acute toxicity LD50 (KM mice [2]) [mg/kg] | Tumor inhibition rate (%) Lewis lung cancer (Lewis lung cancer [3]) [%] | Acute toxicity LD50 (KM mice [4]) [mg/kg] | Tumor inhibition rate (%) Sarcoma 180 (Sarcoma 180 [5]) [%] | IC50 [6] [µM] | Anti-angiogenic effect in CAM assay (in words) (angiogenesis of CAM) | Tumor inhibition rate (%) Lewis lung cancer (Lewis lung cancer [7]) [%] |
| --- | --- | --- | --- | --- | --- | --- | --- | --- | --- | --- | --- | --- | --- | --- | --- | --- |
|  | COc1ccc2c3ccnc(C)c3n(CCCCCn3c4ccccc4c4ccnc(C)c43)c2c1 [Compound 5t, 7-methoxy-1-methyl-9–(5-(1-methyl-β-carboline-9-yl)pentyl)-β-carboline] | 42.7 ± 2.9 | 17.6 ± 3.4 | 3.1 ± 0.4 | 31.6 ± 2.2 | 51.9 ± 7.4 | 4.5 ± 0.6 | 37.2% and 37.2 ± 4.4% | + | 35 |  |  |  |  |  |  |
|  | Cc1nccc2c3ccccc3n(CCCCn3c4ccccc4c4ccnc(C)c43)c12 [Compound B-9-3, 1-Methyl-9-[4–(1-methyl-β-carboline-9-yl)butyl]-β-carboline, reference compound] | 22.3 ± 2.9 | 13.2 ± 1.5 | 6.1 ± 0.9 | > 100 | 14.5 ± 2.2 | 40.6 ± 5.8 |  |  |  | 40.4 | 200 | 56.2 |  |  |  |
|  | COc1ccc2c3ccnc(C)c3n(CCCCn3c4ccccc4c4ccnc(-c5cccs5)c43)c2c1 [Compound 5w, 7-methoxy-1-methyl-9–(4-(1–(2-thienyl)-β-carboline-9-yl)butyl)-β-carboline] | 16.5 ± 1.9 | 14.1 ± 1.4 | 13.1 ± 2.4 | 15.4 ± 2.7 | 15.4 ± 1.9 | 13.1 ± 3.5 |  | + | 50 |  |  |  | < 20 | inhibited angiogenesis |  |
|  | Cc1nccc2c3ccccc3n(CCCCn3c4ccccc4c4ccnc(-c5cccnc5)c43)c12 [Compound 5b, 1–(3-pyridyl)-9–(4-(1-methyl-β-carboline-9-yl)butyl)-β-carboline] | 12.1 ± 2.3 | 8.4 ± 1.7 | 12.4 ± 2.1 | 15.9 ± 1.4 | 10.5 ± 1.3 | 12.6 ± 1.2 |  | –^b | 150 |  |  |  | < 20 | could inhibit the angiogenesis of CAM; also recorded: inhibited angiogenesis |  |
|  | Cc1nccc2c3ccccc3n(CCCCCn3c4ccccc4c4ccnc(-c5cccnc5)c43)c12 [Compound 5c, 1–(3-pyridyl)-9–(5-(1-methyl-β-carboline-9-yl)pentyl)-β-carboline] | 22.6 ± 1.9 | 15.3 ± 2.6 | 5.7 ± 1.2 | 10.5 ± 2.1 | 25.3 ± 3.2 | 13.3 ± 2.4 | 33.6% and 33.6 ± 9.2% |  | 175 |  |  |  |  |  |  |
| 232 to 232.8 | Cc1nccc2c3ccccc3n(CCCCn3c4ccccc4c4ccnc(-c5ccccc5Cl)c43)c12 [Compound 5i, 1–(2-chlorophenyl)-9–(4-(1-methyl-β-carboline-9-yl)butyl)-β-carboline] | 37.9 ± 4.2 | 95.5 ± 14.8 | 44.7 ± 3.6 | 23.9 ± 3.7 | 23.4 ± 4.1 | 28.3 ± 1.6 |  |  |  |  |  |  | 18.8 to 97.6 |  |  |
|  | O=P1(N(CCCl)CCCl)NCCCO1 (centres unmarked) [CTX, Cyclophosphamide, reference compound] |  |  |  |  |  |  | 82.5 ± 3.4% |  |  |  |  |  |  |  | 80.7 ± 2.1 |
